Measurements taken from patent US20100010078A1, “METHODS OF TREATING ANDROGEN DEPENDENT PROSTATE CANCER BY ADMINISTERING AN ACTIVE PHARMACEUTICAL INGREDIENT BEING FISETIN, 3,3',4',7-TETRAHYDROXYFLAVONE OR A DERIVATIVE THEREOF, IN AN ORAL, TRANSDERMAL OR TOPICAL DOSAGE FORM” (priority 2008, published 2010).
Like-named read-outs stand apart in the source and are kept apart here.

Tests used:
[1] = tested on: LNCaP cells; test: Apoptosis by Cell Death Detection ELISAPLUS; type: cell-based, human; settings: 48 h
Experimental: Apoptosis by ELISA. Following treatment of LNCaP cells with fisetin (10-60 μM; 48 h), the extent of apoptosis was determined by Cell Death Detection ELISA^PLUS assay, according to the manufacturer's protocol. The whole cell lysate (40 μg of total protein) was added to the lysis buffer and pipetted on a streptavidin-coated 96-well microtiter plate to which the immunoreagent mix was added and incubated for 2 h at room temperature, with continuous shaking at 500 rpm. The wells were then washed with washing buffer, the substrate solution added, the color developed (10-20 min) was read at 405 nm against the blank, reference wavelength of 490 nm. The enrichment factor (total amount of apoptosis) was calculated by dividing the absorbance of the sample (A405 nm) by the absorbance of the controls without treatment ([…]).

[2] = tested on: LNCaP cells; test: DNA cell cycle analysis by flow cytometry; type: cell-based, human; settings: 48 h
Experimental: DNA Cell Cycle Analysis. The LNCaP cells (50-60% confluent) were treated with fisetin (10-60 μM; 48 h) in complete medium. The cells were trypsinized thereafter, washed twice with cold PBS and centrifuged. The cell pellet was resuspended in 50 μl cold PBS to which cold methanol (450 μL) was added and the cells were incubated for 1 h at 4° C. The cells were centrifuged at 1,100 rpm for 5 minutes, pellet washed twice with cold PBS, suspended in 500 μl PBS and incubated with 5 μl RNase (20 μg/ml final concentration) for 30 min. The cells were chilled over ice for 10 min and incubated with propidium iodide (50 μg/ml final concentration) for 1 h for analysis by flow cytometry. Flow cytometry was performed with a FACScan (Becton Dickinson). A minimum of 10,000 cells per sample were collected and the DNA histograms were further analyzed by using ModiFitLT software (Verily Software House, Topsham, Me.) for cell cycle analysis.

[3] = tested on: cdk2, cdk4 and cdk6; test: Western blot, cdks in LNCaP cells; type: cell-based, human; settings: fisetin 10-60 μM, 48 h
Experimental: (§1) Protein extraction and western blotting. Following the treatment of LNCaP cells with fisetin (10-60 μM; 48 h), the media was aspirated, the cells were washed with cold PBS (pH 7.4), and ice-cold lysis buffer (50 mM Tris-HCl, 150 mM NaCl, 1 mM EGTA, 1 mM EDTA, 20 mM NaF, 100 mM Na3VO4, 0.5% NP-40, 1% Triton X-100, 1 mM PMSF (pH 7.4)) with freshly added protease inhibitor cocktail (Protease Inhibitor Cocktail Set III, Calbiochem, La Jolla, Calif.) over ice for 30 min. The cells were scraped and the lysate was collected in a microfuge tube and passed through a needle to break up the cell aggregates. […]
(§2) For western blotting, 30-50 μg protein was resolved over 8-12% polyacrylamide gels and transferred to a nitrocellulose membrane. The blot was blocked in blocking buffer (5% nonfat dry milk/1% Tween 20; in 20 mM TBS, pH 7.6) for 1 hr at room temperature, incubated with appropriate monoclonal or polyclonal primary antibody in blocking buffer for 1.5 h to overnight at 4° C., followed by incubation with anti-mouse or anti-rabbit secondary antibody horseradish peroxidase conjugate obtained from Amersham Life Science Inc. and detected by chemiluminescence and autoradiography using XAR-5 film obtained from Eastman Kodak Co. (Rochester, N.Y., USA). […]

[4] = tested on: WAF1/p21 and KIP1/p27; test: Western blot, WAF1/p21 and KIP1/p27 in LNCaP cells; type: cell-based, human; settings: fisetin 10-60 μM, 48 h
Experimental: as §1, §2

[5] = tested on: PC-3 cells; test: MTT cell viability assay, PC-3 cells; type: cell-based; settings: Homo sapiens, read-out: decrease in cell viability; for cytotoxicity at 10 µM: PC-3, fisetin 10 μM; for cytotoxicity at 20 µM: PC-3, fisetin 20 μM; for cytotoxicity at 40 µM: PC-3, fisetin 40 μM; for cytotoxicity at 60 µM: PC-3, fisetin 60 μM
Experimental: (§3) obtained from ATCC (Manassas, Va.). LNCaP cells were cultured in Dulbecco's Modified Eagle's medium supplemented with 5% heat-inactivated fetal bovine serum and 1% penicillin/streptomycin (P-S). CWR22Ru1 and PC-3 cells were grown in RPMI 1640 (Invitrogen) supplemented with 10% fetal bovine serum and 1% P-S. Human prostate epithelial cells (PrEC) were obtained from Cambrex Bioscience (Walkersville, Md.) and grown in prostate epithelial basal cell medium (Cambrex Bioscience) according to the manufacturer's instructions. The cells were maintained under standard cell culture conditions at 37° C. and 5% CO2 in a humid environment. Fisetin dissolved in dimethyl sulfoxide (final concentration 0.1% v/v) was used for the treatment of cells. The cells (60-70% confluent) were treated with fisetin (10-60 μM) for 24 and 48 h in complete growth medium.
Cell viability. The effect of fisetin on the viability of cells was determined by 3-[4,5-dimethylthiazol-2-yl]-2,5-diphenyl tetrazoliumbromide assay. LNCaP, CWR22Ru1, PC-3 and PrEC cells were plated at 1×10^4 cells per well in 200 μl of complete culture medium containing 10-60 μM concentrations of fisetin in 96-well microtiter plates for 24 and 48 h. After incubation for specified times at 37° C. in a humidified incubator, 3-[4,5-dimethylthiazol-2-yl]-2,5-diphenyl tetrazoliumbromide (5 mg/ml in PBS) was added to each well and incubated for 2 h, after which the plate was centrifuged at 1,800×g for 5 min at 4° C. The absorbance was recorded on a microplate reader at the wavelength of 540 nm. The effect of fisetin on growth inhibition was assessed as percent cell viability where DMSO-treated cells were taken as 100% viable. DMSO at the concentrations used was without any effect on cell viability.

[6] = tested on: PrEC cells; test: MTT cell viability assay, normal prostate epithelial (PrEC) cells; type: cell-based, human; settings: fisetin 10-60 μM
Experimental: as §3
Cell viability. The effect of fisetin on the viability of cells was determined by 3-[4,5-dimethylthiazol-2-yl]-2,5-diphenyl tetrazoliumbromide assay. […] The absorbance was recorded on a microplate reader at the wavelength of 540 nm. The effect of fisetin on growth inhibition was assessed as percent cell viability where DMSO-treated cells were taken as 100% viable. […]

[7] = target: T1, ligand binding domain (LBD) of androgen receptor (AR) (Homo sapiens, UniProt P10275); test: Competition with labeled AR ligand at the ligand binding domain (FIG. 3)
T1 sequence (P10275 669-900 limits assumed): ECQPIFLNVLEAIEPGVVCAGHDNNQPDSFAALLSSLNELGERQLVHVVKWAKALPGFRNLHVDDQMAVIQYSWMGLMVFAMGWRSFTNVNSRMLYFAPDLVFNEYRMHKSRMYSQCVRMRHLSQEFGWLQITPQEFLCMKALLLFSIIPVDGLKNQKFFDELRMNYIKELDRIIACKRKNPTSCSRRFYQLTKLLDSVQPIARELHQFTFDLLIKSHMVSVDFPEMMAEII

With `O=c1c(O)c(-c2ccc(O)c(O)c2)oc2cc(O)ccc12` [fisetin, 3,3′,4′,7-tetrahydroxyflavone] the “apoptosis as compared to control” value ([1]; fisetin 10 μM) was 40%, the “apoptosis as compared to control” value ([1]; fisetin 20 μM) was 64% and the “apoptosis as compared to control” value ([1]; fisetin 40 μM) was 103%. The “apoptosis as compared to control” value ([1]; fisetin 60 μM) was 106%, the “G1 phase cell cycle distribution” value ([2]; fisetin 10 μM) was 61% and the “G1 phase cell cycle distribution” value ([2]; fisetin 20 μM) was 63%. The “G1 phase cell cycle distribution” value ([2]; fisetin 40 μM) was 67%, the “G1 phase cell cycle distribution” value ([2]; fisetin 60 μM) was 69% and the “protein expression of cdk2, 4 and 6” value [3] was “dose-dependent decrease”. The “protein expression of WAF1/p21 and KIP1/p27” value [4] was “induction”, the cytotoxicity at 10 µM ([5]; 24 h) was 7% and the cytotoxicity at 10 µM ([5]; 48 h) was 11%. For the same compound, the cytotoxicity at 20 µM ([5]; 24 h) was 18%, the cytotoxicity at 20 µM ([5]; 48 h) was 25% and the cytotoxicity at 40 µM ([5]; 24 h) was 24%. The cytotoxicity at 40 µM ([5]; 48 h) was 32%, the cytotoxicity at 60 µM ([5]; 24 h) was 33% and the cytotoxicity at 60 µM ([5]; 48 h) was 46%. For the same compound, the “effect on cell viability” value ([6]; 24 h) was “minimal effect”, the “effect on cell viability” value ([6]; 48 h) was “minimal effect” and the “competition with labeled AR ligand, interaction with LBD” value [7] was “competes with a labeled AR ligand”.
